From a melting point compilation (Tetko et al.; mined from patent text by program, amines drawn as free bases though some values may be those of a salt)

| Compound | melting point [°C] |
| --- | --- |
| O=C(CCc1ccc(OCc2ccccc2)cc1)c1ncc(-c2ccccn2)o1 | 99 to 100 |
| CN(C)c1ccc(-c2nc(N(C)C)nnc2-c2ccc(F)cc2)cc1 | 157 to 160 |
| O=C(NCC1(c2ccccc2)CCCCC1)Nc1ccc(I)cc1 | 184 to 190 |
| Cc1ncccc1NC(=NC#N)NC(NC(=O)CCCc1cccs1)C(C)(C)C (centres undefined) | 66 to 68 |
| CC(C)(C)OC(=O)n1cccc1-c1ccc2c(c1)C(C)(C)OC(=O)N2 | 172 to 173 |
| CCOC(=O)c1cccc(NC(=O)NCC(=O)N2[C@@H](c3ccccc3)SC[C@H]2C(=O)OC(C)(C)C)c1 | 85 |
| Cc1cc(-n2cc(-c3ccc(S(C)=O)cc3)nc2C)cc2ccc(=O)[nH]c12 (centres undefined) | 313 to 315 |
| COc1cc(C=C(C)[N+](=O)[O-])cc2c1OC(C)(C)C2 | 120 to 121 |
| CC(C(=O)O)c1cccc(S(=O)(=O)c2ccccc2Cl)c1O (centres undefined) | 180 to 181 |
| CCCN(CCC)C1CCC2=C(CC(OC)=CC2)C1 (centres undefined) | 47 to 51 |
| CCCCc1ncc(CC(NC(=O)C(c2ccccc2)c2ccccc2)C(=O)O)n1Cc1ccccc1Cl (centres undefined) | 222 to 225 |
| CC1(C)C2CCC(C2)C1(C)F (centres undefined) | 93 to 94 |
| CCOC(=O)C1NC(=O)C1OC (centres undefined) | 91 to 92 |
| C=C(C)C1CCC2C3C=CC4=CC(=O)CCC4(C)C3C(O)CC12C (centres undefined) | 153 to 155 |
| O=c1ccn2c(n1)CN=C(c1ccccc1)c1cc(Cl)ccc1-2 | 208 to 209 |
| COc1cc(C)c2c(c1)C(=O)CCC2 | 55 |
| CN1Cc2nnnn2-c2ccccc21 | 107 to 110 |
| CC1=NN(CCCn2ccnc2)Cc2cc3ccccn3c21 | 162 to 163 |
| CCC(=O)C1C(=O)CC(c2ccc(C3CC(=O)C(C(=O)CC)C(=O)C3)cc2)CC1=O (centres undefined) | 261 |
| C=CC(=O)C(CC1CCOCC1)c1ccc(S(=O)(=O)C2CC2)cc1 (centres undefined) | 92 to 93 |
| Cc1ccccc1-c1c(NC(=O)Nc2c(C)cccc2C(C)C)c(=O)oc2c(F)cc(F)cc12 | 219 to 220 |
| CCCCCC(=O)OC1(c2nc(OC)cc(OC)n2)OC(=O)c2c(Cl)ccc(Cl)c21 (centres undefined) | 103 to 105 |
| Cc1c(N2C(=O)C[C@@](O)(C3CC3)[C@@H]2C)ccc(C#N)c1Cl | 231 to 236 |
| COC(=O)Oc1ccc(OC)c(C=O)c1 | 88 to 89 |
| COc1cc(C)cc(NC(=O)c2nnnn2Cc2ccccc2)c1OCc1ccccc1 | 181 to 183 |

| Compound | melting point [°C] |
| --- | --- |
| CC(C)CCCC(C)C1CCC2C3CC=C4CC(O)CC(O)C4(C)C3CCC12C (centres undefined) | 158 to 161 |
| COC(=O)c1ccccc1Oc1ccc(C)cc1[N+](=O)[O-] | 71 to 73 |
| CNC(=NC#N)NCCSCc1csc(NC(=N)N)n1 | 159 to 161 |
| FC(F)(F)c1cccc(Nc2ccccc2-c2n[nH]c(=S)[nH]2)c1 | 275 to 279 |
| CCOC(=O)C(C)(C)Oc1ccc(OCCn2c(=O)sc3cc(C(=NOC)c4cccc(Cl)c4)ccc32)cc1 | 93 to 98 |
| Cc1nc(N)sc1CCC1CCCCC1 | 98 to 100 |
| CCCN1CCC(C(=O)Nc2ccc(CN(C)C3CCOCC3)cc2)=Cc2cc(Br)ccc21 | 134 to 136 |
| COc1ccc2c(c1)-c1c(nn(-c3ccccn3)c1O)CC2 | 116 to 117 |
| CCn1c2ccc3ccccc3c2c2cccc(C)c21 | 79 to 83 |
| CC(C)C(C(=O)O)c1ccc(Br)cc1 (centres undefined) | 97 to 98 |
| CC(=O)Nc1ccc(Oc2c(-c3ccc(S(C)(=O)=O)cc3)cnn(CC(F)(F)F)c2=O)cc1 | 215 to 216 |
| COCC(=O)N[C@H]1CC[C@H](CCN2CCN(c3nccc4ccoc34)CC2)CC1 | 132 |
| COc1ccc(-c2c(-c3cc(OC)c(OC)c(OC)c3)ncn2-c2cc(OC)c(OC)c(OC)c2)cc1O | 154 to 156 |
| COc1ccc(C(=O)C=Cc2cc(O)c(O)c([N+](=O)[O-])c2)cc1 | 222 to 228 |
| CCCNCCC(=O)Nc1ccc2c(c1)C(=O)c1cc(NC(=O)CCNCCC)ccc1C2=O | 170 |
| Cc1cc2cc(CN3CCCCCC3)cnc2cc1NC(=O)c1ccc(-c2ccc(F)cc2)cc1F | 170 |
| COc1cc(N2CCNCC2)c2ncccc2c1 | 105 to 107 |
| O=[N+]([O-])c1cc(F)c(O)c(F)c1 | 98.4 to 101 |
| CCOC(=O)c1c(-c2ccccc2)c(Cc2cccc(F)c2C)cn1N | 87 to 88 |
| O=C(O)Cc1cn(Cc2ccc(OCc3csc(-c4ccccc4)n3)nc2)nc1-c1ccccc1 | 118 to 119 |
| Nc1ccc(N2CCN(CCCC(=O)c3ccc(F)cc3)CC2)nc1N | 128 to 130 |
| Cn1c(COc2ccc(C#N)cc2)nc2nc(CO)ccc21 | 172 |
| CC(C)n1cc(C(=O)NCc2ccc(Cl)cc2)c(=O)c2cc(CN3CCOCC3)sc21 | 191 to 195 |
| CC#CCOc1cc(-c2ccccc2)ncn1 | 59.6 |
| O=C(O)C12CC(c3ccccc31)c1ccccc12 | 200 |

| Compound | melting point [°C] |
| --- | --- |
| Cc1oc(-c2ccccc2)nc1COc1ccc(CC2SC(=N)NC2=O)cc1 (centres undefined) | 257 to 258 |
| O=C(c1cc2cccc(NS(=O)(=O)c3cccs3)c2[nH]1)N1CCCC1 | 248 to 249 |
| CC(=O)OC1=CC2=CCC3C(C(F)CC4(C)C(=O)CCC34)C2CC1 (centres undefined) | 175 to 177 |
| O=C1CC(c2cccc(-c3nc(CCl)co3)c2)=Nc2ccc(-n3cccc3)cc2N1 | 206 to 207 |
| Cc1cc(C)c(C)c(C(=O)Cn2ccnc2)c1C | 176 to 178 |
| CCCc1c(OCc2cccc(COc3ccccc3CCC(=O)O)c2)ccc2c1OCCC2=O | 132 to 135 |
| CCOCc1nc2c(N)nc(C)cc2n1CCCCNS(C)(=O)=O | 162 to 164 |
| Cc1cc(O)c(O)cc1S(=O)(=O)c1ccc(Cl)c([N+](=O)[O-])c1 | 196 to 197 |
| CC(=O)NCCn1ccc2c1-c1cccc(Cl)c1CC2 | 124 to 126 |
| Brc1cccc2c1[nH]c1c2ccc2cc[nH]c21 | > 250 |
| O=C(O)C(Cc1ccccc1)Oc1ccc(-c2ccc(-c3c(Cc4ccccc4)oc4cccnc34)cc2)cc1 (centres undefined) | 85 to 88 |
| Oc1ccc(-c2ccc(C#CC3(O)CN4CCC3CC4)cc2)cc1 (centres undefined) | 230 to 233 |
| CC(C)(C)OC(=O)C1Cc2ccccc2CN1C(=O)CBr (centres undefined) | 92 to 95 |
| CC(C)(C)OC(=O)NCCCc1ccc(OCCC2Oc3ccccc3N(Cc3cccc(Cl)c3)C2=O)cc1 (centres undefined) | 75 to 81 |
| CCOC(=O)C1=C(C)N(C2CC2)C(C)=C(C(=O)OC)C1c1ccc(C(F)(F)F)cc1 (centres undefined) | 110 |
| N#CCCNC(=O)c1cccc(-c2ccc3c(c2)C(c2cc(Cl)ccc2Cl)CC3)c1 (centres undefined) | 135 to 136 |
| CC(C)NCC(O)c1cc(CO)cc(OCc2ccccc2)c1 (centres undefined) | 84 to 89 |
| Fc1ccc(CC2CCN(CCOc3ccc4c(c3)=NC(=S)N=4)CC2)cc1 | 278 to 280 |
| COc1cc(C(=O)NC2CN(C)C2)ccc1Nc1ncc2c(n1)N(C1CCCC1)CC(F)(F)C(=O)N2C | 157 to 162 |
| CCc1cc2c(s1)-n1c(C)nnc1C(CCCCC(=O)Nc1ccccc1)N=C2c1ccc(Cl)cc1 (centres undefined) | 238 to 240 |
| c1ccc(N2CCN(Cc3n[nH]c4ccccc34)CC2)nc1 | 148 to 150 |
| Cc1noc(NS(=O)(=O)c2c(Cc3ccc4c(c3)OCO4)sc3ccccc23)c1C | 135 to 137 |
| OCc1cccc(-c2nn(Cc3ccccc3)c3ccccc23)c1 | 98 to 99 |
| O=S1(=O)N[C@@H](c2cccc(Br)c2)c2ccccc21 | 163 |
| N#CCCNC(=O)c1cccc(-c2ccnc3cc(Cc4cccc(C(F)(F)F)c4)oc23)c1 | 164 to 165 |

| Compound | melting point [°C] |
| --- | --- |
| CC(C)(C)c1cc(CCc2ccccc2NC(=O)N2CCC(N3CCCCC3)CC2)cc(C(C)(C)C)c1O | 64 to 67 |
| NS(=O)(=O)c1ccc(C2=NNC(C(=O)O)C2)cc1 (centres undefined) | 224 to 226 |
| Nc1nnc(C(F)(F)Oc2ccccc2)s1 | 149 to 151 |
| O=c1c2ccc(Cl)cc2[nH]c2c(O)nn(C3CCOc4ccccc43)c(=O)c12 (racemic) | > 300 |
| CCSc1ccc(-c2coc3ccc(-c4nnc(C)o4)cc23)cc1F | 115 to 116 |
| NCCCN1CCC(c2noc3cc(F)ccc23)CC1 | 59 to 62 |
| CCOC(=O)/C=C/c1cnn(Cc2ccccc2)c1-c1ccccc1 | 62 to 63 |
| O=C(Nc1ccccc1Sc1c(Cl)cncc1Cl)N[C@@H](Cc1ccc(NC(=O)c2c(Cl)cncc2Cl)cc1)C(=O)O | 211 |
| CCSC(=N)Nc1ccc2[nH]cc(C3=CCN(C)CC3)c2c1 | 77 to 79 |
| CCCCc1nc2c(=O)n(Cc3ccc(-c4ccccc4C#N)cc3)ccc2n1Cc1ccc(-c2ccccc2C#N)cc1 | 83 |
| CCCCCCC(C)(C)c1cc(O)c2c(c1)OC(C)(C)[C@@H]1CC=C(NC(C)=O)C[C@@H]21 (relative stereo) | 186 to 188 |
| COc1ccc(C(=O)C2=C(O)C(=O)N(C3OCCO3)C2c2ccccc2)cc1 (centres undefined) | 216 to 219 |
| CC(CN)C1=CC(C)(C(=O)O)CC=C1 (centres undefined) | 236 to 238 |
| Cn1nc(-c2ccc(Cl)c(Cl)c2)cc1C(=O)O | 252 to 256 |
| CCC(=O)C(=Cc1cccc(C#N)c1)C(=O)CC | 51 to 52 |
| CCc1c(N)c(C(N)=O)nn1CCN1CCOCC1 | 152 to 153 |
| NC(=O)c1cc(NCc2cccc(Cl)c2)c([N+](=O)[O-])cc1[N+](=O)[O-] | 178 to 180 |
| CCOCCOc1ccc(C(=O)Nc2ccc3cc(CN4CCCC4)cnc3c2C)c(F)c1 | 132 |
| CC1(N)CN(C(c2ccccc2)c2ccccc2)C1 | 84 to 86 |
| COC1=C(OC)C(=O)C2=C(CC(CCCCOc3ccc(CO)cc3)C2)C1=O | 72 to 75 |
| COc1cc(Br)ccc1N | 56.5 to 58 |
| Cc1cccc(Cl)c1N1Cc2cnc(Nc3ccccc3)nc2N(c2cccc(CCN)c2)C1=O | 192 |
| O=C(O)C1CC(=Cc2ccccc2)CC1C(=O)O (centres undefined) | 172 |
| CCc1cccc(CC)c1NC(=O)c1c(C)oc(C)cc1=O | 83.5 to 84.5 |
